The values that follow are results of earlier work, collected in patent publication US8987322B2, “Pharmaceutical formulations for carrier-mediated transport statins and uses thereof” (Circ Pharma Research and Development Limited, priority 2003, dated 2015).

For series [1] the following is noted: like that found in the stomach.
Assay in series [2]: not given
The source holds these as a separate data set.

Assay in series [3]: not given
This is another data set of the same source.

Series [4] concerns rat hepatocytes. The settings on record: White (2002), read-out: IC50, inhibition of sterol synthesis.
The target of series [5] is T1, HMG-CoA reductase (Homo sapiens, UniProt P04035).
T1 sequence (P04035 1-888): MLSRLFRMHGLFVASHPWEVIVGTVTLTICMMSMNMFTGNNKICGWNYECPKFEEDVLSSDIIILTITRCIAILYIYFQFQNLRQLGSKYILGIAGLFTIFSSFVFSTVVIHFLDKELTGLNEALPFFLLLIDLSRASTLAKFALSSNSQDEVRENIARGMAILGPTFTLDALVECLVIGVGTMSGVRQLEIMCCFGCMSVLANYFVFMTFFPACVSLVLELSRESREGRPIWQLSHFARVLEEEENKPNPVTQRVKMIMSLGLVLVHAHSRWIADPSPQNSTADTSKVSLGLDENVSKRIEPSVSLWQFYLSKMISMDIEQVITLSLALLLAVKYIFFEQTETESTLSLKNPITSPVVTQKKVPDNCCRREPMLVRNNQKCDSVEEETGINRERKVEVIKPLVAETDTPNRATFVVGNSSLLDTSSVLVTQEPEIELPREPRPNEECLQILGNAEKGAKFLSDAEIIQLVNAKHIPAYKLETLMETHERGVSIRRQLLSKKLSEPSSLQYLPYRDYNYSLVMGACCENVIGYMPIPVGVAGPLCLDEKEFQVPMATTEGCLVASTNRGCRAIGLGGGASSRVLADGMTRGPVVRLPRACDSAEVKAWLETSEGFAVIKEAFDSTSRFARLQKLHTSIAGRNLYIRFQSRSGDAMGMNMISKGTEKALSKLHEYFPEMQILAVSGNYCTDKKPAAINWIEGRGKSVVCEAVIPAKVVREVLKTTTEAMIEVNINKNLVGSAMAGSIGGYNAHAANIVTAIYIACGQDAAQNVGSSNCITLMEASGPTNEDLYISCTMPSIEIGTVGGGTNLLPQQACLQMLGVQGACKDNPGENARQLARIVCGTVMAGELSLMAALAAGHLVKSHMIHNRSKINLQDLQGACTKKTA

In series [6] the test system is LDL-C, HDL-C and triglyceride levels. The settings on record: Malinowski (1998).

Where only a bound is given, the exact number is not on record here.

As for `CC(C)c1nc(N(C)S(C)(=O)=O)nc(-c2ccc(F)cc2)c1/C=C/[C@@H](O)C[C@@H](O)CC(=O)O` (single isomer, unassigned) [rosuvastatin], the “water solubility class as defined in the U.S. Pharmacopeia (2002)” value was “sparingly soluble (“sparingly soluble” refers to an aqueous solubility that ranges from about 1/30 to about 1/100 (mg/ml))”. Also, the “stability in an acidic environment” value in series [1] is “stable in acidic environments”. In addition, the “adverse effect at high doses” value in series [2] (80 mg and higher, phase III clinical trials) was “associated with myopathy”. Besides, the tolerability in humans result in series [2] (doses ranging from 1 to 40 mg) is “well tolerated”. Besides, in series [3] (Cheng-Lai (2003)), the “clearance through biliary excretion” value is 90% and the “excreted in the urine” value was 10%. The “hepatic extraction (share of the absorbed dose extracted by the liver)” value in series [3] (Igel et al. (2002)) was “up to 90%”. Moreover, the “dose dependence of Cmax and AUC” value in series [3] (doses ranging from 5 to 80 mg) is listed as “relatively linear relationship”. The “elimination half-life (t1/2)” value in series [3] (in vivo) is 20 h. Further, the “effect of food on absorption” value in series [3] (presence of food) was “overall extent of absorption remains constant”. Moreover, the IC50 in series [4] was 0.16 nM. For the same molecule, the “share of the inhibitory activity due to the parent compound” value in series [5] (White (2002)) is 90%.

For `CC(C)c1c(C(=O)Nc2ccccc2)c(-c2ccccc2)c(-c2ccc(F)cc2)n1CC[C@@H](O)C[C@@H](O)CC(=O)O` [atorvastatin], the “reduction of LDL-C levels” value in series [6] is 40-60%. For the same molecule, in series [3] (first-pass), the “fraction of drug absorbed from the intestine taken up by the liver” value is at least 70%. In addition, in series [3] (oral), the “fraction of orally administered drug absorbed from the intestine” value was “about 30%”; the “systemic availability of active inhibitors (parent drug and its metabolites)” value is given as 30%. Besides, the “share of atorvastatin's inhibitory activity accounted for by its o-hydroxylated and p-hydroxylated metabolites” value in series [5] is reported as “approximately 70%”. In addition, the “duration of HMG-CoA reductase inhibition” value in series [5] (due to the inhibitory activity of metabolites) was 20 to 30 h.

For `CC[C@H](C)C(=O)O[C@H]1C[C@H](O)C=C2C=C[C@H](C)[C@H](CC[C@@H](O)C[C@@H](O)CC(=O)O)[C@H]21` [pravastatin], the “stability in an acidic environment” value in series [1] is “unstable in an acidic environment”.
